Measurements taken from ChEMBL document CHEMBL5252583, “Cancer cell growth suppressibility of ω-3 fatty acid whose carboxy group converted to ester group” (Bioorg Med Chem Lett, 2023).

Legend:
[1] = Drug uptake in human MIA PaCa-2 cells assessed as increase in incorporation of compound into lipid droplets by measuring absorbance at 50 uM incubated for 24 hrs by Oil Red O staining based fluorescence microscopic analysis (reference value: 2.35 +/- 0.11 10^-2No_unit); assay type: ADME, cell-based; conditions: mia paca-2, 24 h
MIA PaCa-2 = test: Antiproliferative activity against human MIA PaCa-2 cells assessed as cell growth inhibition at 500 uM measured after 24 hrs by alamar blue assay relative to control; assay type: functional
MCF7 = test: Antiproliferative activity against human MCF7 cells assessed as cell growth inhibition at 500 uM measured after 24 hrs by alamar blue assay relative to control; assay type: functional
HCT-116 = test: Antiproliferative activity against human HCT-116 cells assessed as cell growth inhibition at 500 uM measured after 24 hrs by alamar blue assay relative to control; assay type: functional

Row | SMILES | Activity [1] | inhibition at 500 µM (MIA PaCa-2) [%] | inhibition at 500 µM (MCF7) [%] | inhibition at 500 µM (HCT-116) [%]
1 | CC/C=C\C/C=C\C/C=C\CCCCCCCC(=O)O [LINOLENIC ACID] | 4.19 10^-2No_unit | 25 | 50 | 36
2 | CC/C=C\C/C=C\C/C=C\CCCCCCCC(=O)Oc1ccc(C(F)(F)F)cc1 | 4.07 10^-2No_unit | 25 | 47 | 37
3 | CC/C=C\C/C=C\C/C=C\CCCCCCCC(=O)Oc1ccc(OC)cc1 | 3.94 10^-2No_unit | 26 | 49 | 40
4 | CC/C=C\C/C=C\C/C=C\CCCCCCCC(=O)Oc1ccccc1 | 4.12 10^-2No_unit | 23 | 48 | 36
